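Step 1: Grow cells in 96-well plates. Step 2: Expose to compound for 48 hours at 5 concentrations. Step 3: Interpolate endpoints linearly; if unreached, use highest concentration. TGI denotes the concentration required for complete inhibition of growth.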
Legend:
Experiment in all cases: inhibition of tumour cell growth, NCI panel, 48 h
OVCAR-4 ovarian = system: OVCAR-4 ovarian
HS 578T breast = system: HS 578T breast
SN12C renal = system: SN12C renal
SNB-75 CNS = system: SNB-75 CNS
M14 melanoma = system: M14 melanoma
OVCAR-3 ovarian = system: OVCAR-3 ovarian
CCRF-CEM leukemia = system: CCRF-CEM leukemia
MDA-MB-231 breast = system: MDA-MB-231 breast
SF-295 CNS = system: SF-295 CNS
U251 CNS = system: U251 CNS
MCF7 breast = system: MCF7 breast
NCI-H522 lung = system: NCI-H522 lung
SF-539 CNS = system: SF-539 CNS
SK-OV-3 ovarian = system: SK-OV-3 ovarian
RXF 393 renal = system: RXF 393 renal
CAKI-1 renal = system: CAKI-1 renal
HOP-62 NSCLC = system: HOP-62 NSCLC
786-0 renal = system: 786-0 renal
DU-145 prostate = system: DU-145 prostate
ACHN renal = system: ACHN renal

Compound | TGI (OVCAR-4 ovarian) | TGI (HS 578T breast) | TGI (SN12C renal) | TGI (SNB-75 CNS) | TGI (M14 melanoma) | TGI (OVCAR-3 ovarian) | TGI (CCRF-CEM leukemia) | TGI (MDA-MB-231 breast) | TGI (SF-295 CNS) | TGI (U251 CNS) | TGI (MCF7 breast) | TGI (NCI-H522 lung) | TGI (SF-539 CNS) | TGI (SK-OV-3 ovarian) | TGI (RXF 393 renal) | TGI (CAKI-1 renal) | TGI (HOP-62 NSCLC) | TGI (786-0 renal) | TGI (DU-145 prostate) | TGI (ACHN renal)
c1ccc(N=C(N2CCOCC2)N(CCN2CCOCC2)c2ccccc2)cc1 | > 100 µM | > 100 µM | > 100 µM | > 100 µM | > 100 µM | > 100 µM | > 100 µM | > 100 µM | > 100 µM | > 100 µM | > 100 µM | > 100 µM | > 100 µM | > 100 µM | > 100 µM | > 100 µM | > 100 µM | > 100 µM | > 100 µM | 
COc1ccc(C2=Nn3c(nc4sc(C)c(C)c4c3=O)SC2)cc1 | > 100 µM | > 100 µM | > 100 µM | > 100 µM |  | > 100 µM | > 100 µM | > 100 µM | > 100 µM | > 100 µM | > 100 µM | > 100 µM | > 100 µM | > 100 µM | > 100 µM | > 100 µM | > 100 µM | > 100 µM | > 100 µM | > 100 µM
CC(=O)OCc1ccc2oc(=O)c(C(=O)Oc3cccc(Cl)c3)cc2c1 | > 100 µM | > 100 µM | > 100 µM | > 100 µM | > 100 µM | > 100 µM | > 100 µM | 98.8 µM | > 100 µM | > 100 µM | 61.6 µM | > 100 µM | > 100 µM | > 100 µM | > 100 µM | > 100 µM | > 100 µM | > 100 µM | > 100 µM | > 100 µM
O=Nc1c(-c2c(O)[nH]c3ccccc23)[nH]c2ccccc12 | 34.1 µM | > 29.1 µM | 13.3 µM | 16.5 µM | 25.9 µM | > 89.7 µM | 29.7 µM | 21.2 µM | 99.2 µM | > 65.4 µM | > 23.9 µM | 20.9 µM | > 100 µM | 21.2 µM | 13.2 µM | 41 µM | > 48.6 µM | > 49.9 µM | 31 µM | > 32.1 µM
COc1cccc(C(=O)Nc2c3ccccc3nc3ccccc23)c1OC | > 100 µM | > 100 µM | > 100 µM | 71 µM | > 100 µM | > 100 µM | > 100 µM | > 100 µM | > 100 µM | > 100 µM | > 100 µM | 89.9 µM | > 100 µM | > 100 µM | 72.2 µM | > 100 µM | > 100 µM | > 100 µM | > 100 µM | > 100 µM
O=C1OC2C(O)COC2(O)C1(O)C(C[N+](=O)[O-])c1ccc(Cl)cc1 (configuration not stated) | 19.4 µM | > 52.9 µM | 37.9 µM | 20.1 µM | 13.6 µM | 21.5 µM | 24.1 µM | 48.7 µM | 27.9 µM | 25.5 µM | 5 µM | 23.7 µM | 14 µM | 31 µM | 9.21 µM | 30.1 µM | 40 µM | 3.45 µM | 34.2 µM | 26.7 µM
O=C(NCCc1ccccc1)[C@H]1CCCC[C@@H]1CCO | > 100 µM | > 100 µM | > 100 µM | > 100 µM | > 100 µM | > 100 µM | > 100 µM | > 100 µM | > 100 µM | > 100 µM | > 100 µM | > 100 µM | > 100 µM | > 100 µM | > 100 µM | > 100 µM | > 100 µM | > 100 µM | > 100 µM | > 100 µM
N=c1oc2c(Br)cc(Br)cc2cc1C(=O)Nc1ccccn1 | > 100 µM | > 100 µM | > 100 µM | > 100 µM | > 100 µM | > 100 µM | > 100 µM | > 100 µM |  | > 100 µM | > 100 µM | > 100 µM | > 100 µM | > 100 µM | > 100 µM | > 100 µM | > 100 µM | > 100 µM | > 100 µM | > 100 µM
CCC(=O)C1(N2CCOCC2)CCN(CCCC(=O)c2ccc(F)cc2)CC1 | > 100 µM | > 100 µM | > 100 µM | > 100 µM | > 100 µM | > 100 µM | > 100 µM | > 100 µM | > 100 µM | > 100 µM | > 100 µM | > 100 µM | > 100 µM | > 100 µM | > 100 µM | > 100 µM | > 100 µM | > 100 µM | > 100 µM | > 100 µM
Cc1ccc(/C=N/Nc2nc3ccccc3s2)s1 | > 100 µM | > 100 µM | 34.3 µM | > 100 µM | > 100 µM | > 100 µM | > 100 µM | 89.8 µM | > 100 µM | > 100 µM | > 100 µM | > 100 µM | > 100 µM | > 100 µM | > 100 µM | > 100 µM | 89.4 µM | > 100 µM | > 100 µM | > 100 µM
CC(=O)OCC1OC(n2c(C#N)cc(=O)[nH]c2=O)CC1OC(C)=O (configuration not stated) | > 100 µM | > 100 µM | > 100 µM | > 100 µM | > 100 µM | > 100 µM | > 100 µM | > 100 µM | > 100 µM | > 100 µM | > 100 µM | > 100 µM | > 100 µM | > 100 µM | > 100 µM | > 100 µM | > 100 µM | > 100 µM | > 100 µM | > 100 µM
CC1=C(C)CC(C#N)(C#N)C(C#N)(C#N)C1 | > 10 µM | > 10 µM | > 10 µM | > 10 µM | > 10 µM | 9.68 µM | > 10 µM | > 10 µM | > 10 µM | > 10 µM | > 10 µM | > 2.72 µM | > 10 µM | > 10 µM | > 6.09 µM | > 10 µM | > 10 µM | > 8.08 µM | > 10 µM | > 10 µM
CC(C)(C)N1C(=O)c2ccccc2C1(O)C(F)(F)F (configuration not stated) | > 100 µM | 97.8 µM | > 100 µM | > 100 µM | > 100 µM | > 100 µM | > 100 µM | > 100 µM | > 100 µM | > 100 µM | > 100 µM | > 100 µM | > 100 µM | > 100 µM | > 100 µM | > 100 µM | > 100 µM | > 100 µM | > 100 µM | > 100 µM
O=C(NO)c1ccc(OCc2cccc(Cl)c2)cc1 | > 58 µM | > 96 µM | 55.9 µM | > 70.2 µM | > 45.8 µM | > 64.1 µM | > 100 µM | 43.2 µM | 35.2 µM | > 60.5 µM | > 100 µM | 19.2 µM | > 41.8 µM | 66.1 µM | 47.6 µM | 37.5 µM | > 47 µM | 19.1 µM | > 47.3 µM | 25 µM
O=C1C=CC(=O)c2c1cc([N+](=O)[O-])c1ccoc21 | 38.6 µM | > 60.1 µM | 38.1 µM | > 59.5 µM | 11.3 µM | 70.2 µM | > 19.7 µM | 52.7 µM | 35.8 µM | 37.2 µM | 44.3 µM | 4.4 µM | 69.9 µM | 43.6 µM | 3.75 µM | 3.54 µM | 31.8 µM | 3.35 µM | > 58.6 µM | 3.4 µM
COc1ccc2c(c1)CCN=C2Cc1ccccc1CCCl | > 100 µM | > 100 µM | 72.5 µM | > 100 µM | 46.1 µM | > 100 µM | > 100 µM | 44.1 µM | > 100 µM | > 100 µM | > 100 µM | 58.4 µM | 45.8 µM | > 100 µM | 71.7 µM | 63.2 µM | > 100 µM | > 100 µM | > 100 µM | 79.2 µM
O=C1Oc2ccccc2C(=O)/C1=C/N1C(=O)/C(=C/c2ccc3c(c2)OCO3)SC1=S | 47.9 µM | 14.9 µM | 51.6 µM | 19.2 µM | 31.9 µM | 10.9 µM | > 61.3 µM | 44 µM | 35 µM | 15 µM | > 58.4 µM | 45.2 µM | 26.7 µM | 38.5 µM | 40.2 µM | 36.5 µM | 24.4 µM | > 54.8 µM | 49.1 µM | 28.1 µM
Cc1ccc(-c2cc(-c3ccc(Cl)cc3)nc(/N=C3\C(=O)N(CN4CCOCC4)c4ccccc43)n2)cc1 | > 100 µM | 51.5 µM | > 100 µM | 70.2 µM | 87.4 µM | > 100 µM | 88.2 µM | > 100 µM | > 100 µM | 77 µM | > 100 µM | 30.1 µM | 36.5 µM | > 100 µM | 30.9 µM | 80 µM | > 100 µM | 74.3 µM | > 100 µM | 63.8 µM
Cc1c(-c2ccccc2)[nH]c2ccc(Cl)cc2c1=O | 59.7 µM | > 100 µM | > 100 µM | 95.2 µM | > 100 µM | 72 µM | > 100 µM | 96 µM | > 100 µM | 57.5 µM | > 100 µM | > 100 µM | 42.9 µM | 87.6 µM | 57.6 µM | 3.82 µM | 50.2 µM | > 100 µM | > 100 µM | > 100 µM
O=C(Nc1ccc(Cl)cc1)NS(=O)(=O)c1coc2ccccc2c1=O | > 10 µM | > 10 µM | > 10 µM | > 10 µM | > 10 µM | > 10 µM | > 10 µM | > 10 µM | > 10 µM | > 10 µM | > 10 µM | > 10 µM | > 10 µM | > 10 µM | > 10 µM | > 10 µM | > 10 µM | > 10 µM | > 10 µM | > 10 µM
Cc1ccccc1N=CN(C)C | > 100 µM | > 100 µM | > 100 µM | > 100 µM | > 100 µM | 81.2 µM | > 100 µM | > 100 µM | > 100 µM | > 100 µM | > 100 µM | 94.2 µM | > 100 µM | > 100 µM | > 100 µM | > 100 µM | > 100 µM | > 100 µM | > 100 µM | > 100 µM
C/C(=C/c1ccccc1)CN(C(=O)/C=C\Sc1ccccc1)C(C)(C)C | > 100 µM | > 47.8 µM | > 100 µM | > 100 µM | > 100 µM | > 100 µM | > 100 µM | > 100 µM | > 100 µM | > 100 µM | > 100 µM | > 46.4 µM | > 100 µM | > 100 µM | > 100 µM | > 100 µM | > 100 µM | > 100 µM | > 100 µM | > 100 µM
COc1ccc2oc(=Nc3ccccc3)c(C(N)=O)cc2c1 | > 100 µM | > 70.1 µM | > 100 µM | > 100 µM | > 100 µM | > 100 µM | > 100 µM | > 100 µM | > 100 µM | > 100 µM | > 100 µM | > 100 µM | > 100 µM | > 70.2 µM | > 100 µM | > 100 µM | 98.4 µM | > 100 µM | > 100 µM | 42 µM
